The text below walks through data of PMC7153899, “Anti-hyperglycemic activity of myricetin, through inhibition of DPP-4 and enhanced GLP-1 levels, is attenuated by co-ingestion with lectin-rich protein” (PLoS ONE, 2020).

In the assay the target is T1, Dipeptidyl peptidase-4 (DPP-4) (Homo sapiens, UniProt P27487).
T1 construct: gene DPP4; recombinant DPP-4 (human)
Put plainly: colorimetric enzyme assay with recombinant human DPP-4, gly-pro p-nitroanilide substrate, absorbance […] nm. It counts as biochemical.

T1 sequence (P27487 39-766): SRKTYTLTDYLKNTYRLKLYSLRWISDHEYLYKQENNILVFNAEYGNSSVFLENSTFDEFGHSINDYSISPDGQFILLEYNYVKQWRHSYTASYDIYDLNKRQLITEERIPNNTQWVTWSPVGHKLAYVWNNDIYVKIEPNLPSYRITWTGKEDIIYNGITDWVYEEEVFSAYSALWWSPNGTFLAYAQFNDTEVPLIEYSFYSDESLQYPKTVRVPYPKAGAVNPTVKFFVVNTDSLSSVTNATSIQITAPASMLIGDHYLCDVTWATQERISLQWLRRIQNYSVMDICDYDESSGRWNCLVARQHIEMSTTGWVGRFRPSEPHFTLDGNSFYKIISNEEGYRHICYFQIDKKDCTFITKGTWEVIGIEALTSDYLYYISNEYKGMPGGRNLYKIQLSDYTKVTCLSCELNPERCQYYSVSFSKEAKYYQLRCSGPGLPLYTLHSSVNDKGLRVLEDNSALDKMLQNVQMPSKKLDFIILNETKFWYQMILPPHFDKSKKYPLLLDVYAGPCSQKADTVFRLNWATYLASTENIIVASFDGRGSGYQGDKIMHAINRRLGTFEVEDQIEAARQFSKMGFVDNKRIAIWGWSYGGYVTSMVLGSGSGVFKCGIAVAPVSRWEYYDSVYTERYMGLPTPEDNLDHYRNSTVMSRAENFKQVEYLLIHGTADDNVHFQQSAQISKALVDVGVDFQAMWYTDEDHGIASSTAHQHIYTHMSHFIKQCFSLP

As to `O=c1c(O)c(-c2cc(O)c(O)c(O)c2)oc2cc(O)cc(O)c12` [myricetin], the IC50 amounted to 4.8 ± 0.36 µM.

What is called IC50 is the midpoint of a concentration-inhibition curve.
